Values joined by “and” are separate entries in the source; they are usually repeats but may differ in a detail not shown here. Equal values may be shown once. “Also recorded” adds a separate entry of the source. Read-outs that look alike come from different tables or passages of the source.
Experiments:
porcine brain tubulin = molecular target: T1, porcine brain tubulin (Sus scrofa, UniProt P02550+P02554); assay: In vitro tubulin polymerization assay (turbidity at 340 nm); assay type: biochemical; settings: 10 µM compound; for Initial Rate of the Exponential Phase, Signal Response / Lag Time: 37 °C, 90 min, turbidity 340 nm
T1 construct: The standard reaction mixture contains 95 μL of 4 mg.mL^−1 porcine brain tubulin; purchased Cytoskeleton, USA BK004P; host or cells: porcine brain (tissue-purified)
Method: The ability of the compounds to modulate the polymerization of tubulin was evaluated in vitro on purified porcine tubulin by spectrophotometric monitoring at 340 nm and compared to those of nocodazole and paclitaxel as reference compounds. Nocodazole which inhibits the assembly of tubulin was used as a positive control, and paclitaxel which is a stabilizing agent of tubulin polymerization was used as a negative control. Tubulin polymerization was determined with 10 µM of the reference drugs and compounds 1a–l for 90 min.
Figure 3 Porcine brain tubulin (final […]) in presence of PB-GTP buffer, 10 µM paclitaxel, 10 µM nocodazole and 10 µM of the assayed compounds. Reaction was conducted in thermostated spectrophotometric chamber at 37 °C for 90 min. Turbidity was measured at 340 nm every 30 s.
The effect of the studied compounds on the polymerization of purified porcine tubulin was monitored using a commercial assay kit (cat. number BK004P), purchased from Cytoskeleton, USA. Stock solutions of porcine brain tubulin solutions (4 mg.mL^−1) were prepared immediately prior to use in general tubulin buffer (80 mM piperazine-N,N′-bis(2-ethanesulfonic acid, PIPES) pH 6.9, 2 mM MgCl2 and 0.5 mM (ethylene glycol-bis(β-aminoethyl ether)-N,N,N′,N′-tetraacetic acid, EGTA) containing 1 mM guanosine triphosphate (GTP) (G-PEM buffer). Stock solutions of Paclitaxel (100 µM), Noconazole (100 µM) or tested samples (100 µM) in G-PEM buffer containing 5% DMSO were prepared.
The standard reaction mixture contains 95 μL of 4 mg.mL^−1 porcine brain tubulin and 5 μL of standards, test samples or G-PEM buffer only (control). Then, the microplate with loaded reaction mixtures was incubated for 90 min. at 37 °C in a thermostated spectrophotometer chamber. The turbidity of the mixtures was measured at 340 nm every 30 s. The experiment was performed on SpectroStar Nano (BMG Labtech, Aylesbury, UK) equipped with software for kinetic measurements.

[1] = test system: 3T3 (mouse embryo fibroblasts); assay: Cytotoxicity against normal 3T3 cells; assay type: cell-based; settings: normal mouse embryo fibroblast cell line; ± SD
From the text: (§1) A standard colorimetric MTT assay was used to evaluate the anticancer activity of the newly synthesized 1H-benzimidazol-2-yl hydrazone derivatives against human malignant cell lines of different histological origin, namely MCF-7 (ER-positive breast adenocarcinoma) and AR-230 (BCR-ABL positive chronic myeloid leukemia), using podophyllotoxin as a reference drug. For each compound, the half-inhibitory concentrations (IC50) were estimated based on the derived “dose–response” relationships following 72h exposure time. In addition, their cytotoxicity was measured against normal fibroblast cells 3T3 (mouse embryo fibroblasts) and CCL-1 (murine fibroblasts) and respective cancer selectivity indices (CSI) were calculated (Table 2).
Evaluation of the cytotoxic activity of some of the compounds was performed on 3T3 (mouse embryo fibroblasts) cell line. The cells were cultivated in Dulbecco′s Modified Eagle′s Medium (DMEM), containing 10% FBS, with supplements L-glutamine, sodium pyruvate, antibiotic and non-essential amino acids, and allowed to adhere overnight at 37 °C in an incubator with 5% CO2 humidified atmosphere. At the end of the incubation, the cells were treated with different concentrations of the compounds in a final volume of 100 μL/well in triplicate wells for each treatment for 24 h at 37 °C in a CO2 incubator. All studies were repeated at least twice. Control cells were grown in DMEM containing 10% FBS and allowed to stabilize overnight at 37 °C in a CO2 incubator and left without treatment.

[2] = test system: MCF-7 (ER-positive breast adenocarcinoma); assay: MTT cytotoxicity assay, MCF-7; assay type: cell-based, human; settings: for IC50: Homo sapiens, read-out: IC50 MCF-7
From the text: as §1
(§2) The cell lines MCF-7, AR-231 and CCL-1 were obtained from the German Collection of Microorganisms and Cell Cultures. Cells were kept in a controlled environment—RPMI-1640 medium supplemented with 10% fetal bovine serum (FBS) and 2mM L-glutamine, at 37 °C in an incubator with 5% CO2 humidified atmosphere.
(§3) MTT-based colorimetric assay was used for evaluating the cell viability. The method is based on the reduction of the yellow tetrazolium compound MTT to water-insoluble, violet formazan crystals. MCF-7, AR-231, and CCL-1 cells were seeded in 96-well, flatbottomed microplates (100 µL/well) at a density of 3 × 10^5 cells per mL and allowed to grow for 24 h prior the exposure to the studied compounds. Cells were exposed to the tested agents for 72 h. After the exposure period MTT solution (10 mg.mL^−1) aliquots (100 µL/well) were added to each well. The plates were further incubated for 4 h at 37 °C and the MTT-formazan crystals formed were dissolved through addition of […] of 5% HCOOH in 2-propanol. The absorption was measured at 580 nm using a microplate reader (Labexim LMR-1).

[3] = test system: AR-230 (BCR-ABL positive chronic myeloid leukemia); assay: MTT cytotoxicity assay, AR-230; assay type: cell-based, human; settings: for IC50: Homo sapiens, read-out: IC50 AR-230
From the text: as §1, §2, §3

[4] = Hydroxyl radical averting capacity (HORAC); settings: gallic acid equivalents; sample final concentration 2.5 μM; Co(II)/H2O2, fluorescein; mean
Method: HORAC values of various phenolic compounds are related to their metal chelating properties and molecules that can chelate metals show significant HORAC values. According to the HORAC assays, the antioxidant capacity ranged between 0.50 and 3.03 GAE. […] To our knowledge, the current study is the first one to report ORAC and HORAC activities of 1H-benzimidazole-2-yl hydrazones.
HORAC was performed according to Ou et al. and fluorescein was used as the fluorescent probe. Hydrogen peroxide solution of 0.55 M was prepared in distilled water. 4.6 mM Co(II) was prepared as follows: 15.7 mg of CoF2.4H2O and 20 mg of picolinic acid were dissolved in 20 mL of distilled water. Fluorescein—170 µL (60 nM, final concentration) and 10 µL of sample were incubated at 37 °C for 10 min directly in the FLUOstar plate reader. […] The initial fluorescence was measured after which the readings were taken every minute after shaking. […] The AUC were calculated as they were for the ORAC assay. One HORAC unit was assigned to the net protection area provided by 1 µM gallic acid (final concentration −0.05 μM) and the activity of the sample was expressed as Gallic Acid Equivalents (GAE).
ORAC and HORAC analyses were carried out on a FLUOstar Galaxy plate reader (BMG Labtechnology, Offenburg, Germany) with excitation wavelength = 485 nm and emission wavelength = 520 nm.

[5] = test system: CCL-1 (murine fibroblasts); assay: MTT cytotoxicity against normal CCL-1 cells; assay type: cell-based; settings: Mus musculus, 72 h, read-out: IC50 CCL-1
From the text: as §1, §2, §3

[6] = normal murine fibroblast cell line, MTT, ± SD

T1 sequence (P02550 whole entry): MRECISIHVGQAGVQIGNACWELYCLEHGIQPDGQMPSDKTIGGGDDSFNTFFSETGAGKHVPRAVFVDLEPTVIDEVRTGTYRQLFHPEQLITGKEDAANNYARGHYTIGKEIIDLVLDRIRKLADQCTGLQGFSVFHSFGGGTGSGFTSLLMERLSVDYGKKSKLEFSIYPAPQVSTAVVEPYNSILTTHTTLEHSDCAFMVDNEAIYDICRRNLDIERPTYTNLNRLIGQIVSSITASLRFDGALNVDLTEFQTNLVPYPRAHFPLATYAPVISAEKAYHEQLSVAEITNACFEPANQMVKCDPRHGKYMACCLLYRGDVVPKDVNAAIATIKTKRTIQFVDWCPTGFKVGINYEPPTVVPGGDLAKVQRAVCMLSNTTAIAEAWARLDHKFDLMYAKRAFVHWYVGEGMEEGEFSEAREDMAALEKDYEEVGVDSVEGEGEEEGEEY
T1 sequence (P02554 whole entry): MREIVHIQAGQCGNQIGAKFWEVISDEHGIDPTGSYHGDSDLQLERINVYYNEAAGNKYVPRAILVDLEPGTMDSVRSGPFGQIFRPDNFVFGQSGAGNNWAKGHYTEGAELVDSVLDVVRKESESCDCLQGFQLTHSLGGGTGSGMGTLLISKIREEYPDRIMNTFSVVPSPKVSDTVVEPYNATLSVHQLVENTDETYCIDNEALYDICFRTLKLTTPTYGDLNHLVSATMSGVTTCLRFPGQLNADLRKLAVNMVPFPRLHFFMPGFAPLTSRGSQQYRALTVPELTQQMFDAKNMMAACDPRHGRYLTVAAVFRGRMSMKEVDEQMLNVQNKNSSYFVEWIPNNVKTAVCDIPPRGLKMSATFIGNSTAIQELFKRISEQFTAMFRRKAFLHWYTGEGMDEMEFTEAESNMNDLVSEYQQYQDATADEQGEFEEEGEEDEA

Row | Initial Rate of the Exponential Phase, Signal Response (porcine brain tubulin) [a.u.s^−1 × 10^−6] | Lag Time (porcine brain tubulin) | lag time of tubulin polymerization (porcine brain tubulin) | SMILES | IC50 [1] [µM] | IC50 ([2]; MCF7, MTT, 72 h exposure, ± SD) [µM] | CSI MCF-7 (cancer selectivity index) ([2]; IC50(3T3)/IC50(MCF-7)) | IC50 ([3]; MTT, 72 h exposure, ± SD) [µM] | CSI AR230 (cancer selectivity index) ([3]; IC50(3T3)/IC50(AR-230)) | HORAC [4] [GAE] | CSI AR230 (cancer selectivity index) ([3]; IC50(CCL-1)/IC50(AR-230)) | IC50 [5, 6] [µM] | CSI MCF-7 (cancer selectivity index) ([2]; IC50(CCL-1)/IC50(MCF-7)) | IC50 ([2]; MCF7, 72 h) [µM] | IC50 ([3]; 72 h) [µM] | IC50 ([5]; Fibroblast) [µM]
1 | 8.77 | 1390 s |  | Oc1ccccc1/C=N/Nc1nc2ccccc2[nH]1 [Compound 1a] | 204 ± 5.1 | 18.7 ± 1.1 | ≈11 | 21.2 ± 2.3 | ≈9.6 |  |  |  |  |  |  | 
2 | 13.4 | 1400 s and 1461 s |  | Oc1cccc(/C=N/Nc2nc3ccccc3[nH]2)c1O [Compound 1b] | 61.1 ± 1.8 | 64.5 ± 6.2 | ≈1 | 3.3 ± 0.3 | ≈18.4 |  |  |  |  |  |  | 
3 | 4.9 | 1190 s |  | Oc1ccc(/C=N/Nc2nc3ccccc3[nH]2)c(O)c1 [Compound 1c] |  |  |  |  |  | 2.69 |  |  |  |  |  | 
4 | 13.3 | 1400 s and 1407 s |  | Oc1ccc(/C=N/Nc2nc3ccccc3[nH]2)cc1O [Compound 1d] |  |  |  | 61.8 ± 5.7 |  |  | ≈1.8 | 113 ± 9.1 |  |  |  | 
5 | 17.1 | 807 s |  | COc1ccc(/C=N/Nc2nc3ccccc3[nH]2)cc1 [Compound 1f] | 355 ± 5.3 | 11.2 ± 1.3 | ≈31.6 | 19.4 ± 2.2 | ≈18.2 |  |  |  |  |  |  | 
6 | 9.7 | 1295 s | more than 20 min | COc1ccc(/C=N/Nc2nc3ccccc3[nH]2)c(O)c1 [Compound 1k] |  | 1.5 ± 0.3 |  | 0.9 ± 0.1 |  |  | ≈113 | 102 ± 7.3 | ≈67.8 |  |  | 
7 | 16 | no lag phase |  | COc1ccc(/C=N/Nc2nc3ccccc3[nH]2)cc1O [Compound 1l] | 134.7 ± 1.3 | 27.6 ± 3.5 | ≈4.8 | 16.8 ± 3.4 | ≈8 |  |  |  |  |  |  | 

Continued, compound first:

Row | SMILES | Initial Rate of the Exponential Phase, Signal Response (porcine brain tubulin) [a.u.s^−1 × 10^−6] | Lag Time (porcine brain tubulin) | lag time of tubulin polymerization (porcine brain tubulin) | IC50 [1] [µM] | IC50 ([2]; MCF7, MTT, 72 h exposure, ± SD) [µM] | CSI MCF-7 (cancer selectivity index) ([2]; IC50(3T3)/IC50(MCF-7)) | IC50 ([3]; MTT, 72 h exposure, ± SD) [µM] | CSI AR230 (cancer selectivity index) ([3]; IC50(3T3)/IC50(AR-230)) | HORAC [4] [GAE] | CSI AR230 (cancer selectivity index) ([3]; IC50(CCL-1)/IC50(AR-230)) | IC50 [5, 6] [µM] | CSI MCF-7 (cancer selectivity index) ([2]; IC50(CCL-1)/IC50(MCF-7)) | IC50 ([2]; MCF7, 72 h) [µM] | IC50 ([3]; 72 h) [µM] | IC50 ([5]; Fibroblast) [µM]
8 | Oc1ccc(/C=N/Nc2nc3ccccc3[nH]2)c(O)c1O [Compound 1e] |  |  |  |  |  |  |  |  | 2.79 |  |  |  |  |  | 
9 | COc1cccc(OC)c1/C=N/Nc1nc2ccccc2[nH]1 [Compound 1g] | 10.7 | 1000 s |  | 261 ± 4.7 | 7.9 ± 2.1 | ≈33 | 11.5 ± 1 | ≈22.6 |  |  |  |  |  |  | 
10 | COc1cc(/C=N/Nc2nc3ccccc3[nH]2)cc(OC)c1 [Compound 1h] | 23.1 | 1090 s |  | 335 ± 7 | 4.6 ± 0.7 | ≈72.8 | 5.9 ± 0.9 | ≈56.7 |  |  |  |  |  |  | 
11 | COc1cc(/C=N/Nc2nc3ccccc3[nH]2)cc(OC)c1OC [Compound 1i] | 20.6 | 988 s |  | 71 ± 2.4 | 1.2 ± 0.2 | ≈59.1 | 1.7 ± 0.3 | ≈41.7 |  |  |  |  |  |  | 
12 | COc1cccc(/C=N/Nc2nc3ccccc3[nH]2)c1O [Compound 1j] | 16.9 | 1200 s | more than 20 min |  | 6.4 ± 1.2 |  | 1.1 ± 0.2 |  |  | ≈ 363; also recorded: ≈363.6 | > 400 | > 50 |  |  | 
13 | COc1cc([C@@H]2c3cc4c(cc3[C@H](O)[C@H]3COC(=O)[C@H]23)OCO4)cc(OC)c1OC [Podophyllotoxin, reference compound] |  |  |  |  |  |  |  |  |  | ≈5.7 |  | ≈9 | 0.3 ± 0.06 | 0.47 ± 0.09 | 2.7
14 | COC(=O)Nc1nc2ccc(C(=O)c3cccs3)cc2[nH]1 [nocodazole, reference compound] | 52 | 935 s |  |  |  |  |  |  |  |  |  |  |  |  | 
15 | CC(=O)O[C@H]1C(=O)[C@@]2(C)[C@H]([C@H](OC(=O)c3ccccc3)[C@]3(O)C[C@H](OC(=O)[C@H](O)[C@@H](NC(=O)c4ccccc4)c4ccccc4)C(C)=C1C3(C)C)[C@]1(OC(C)=O)CO[C@@H]1C[C@@H]2O [paclitaxel, reference compound] | 167 | 151 s |  |  |  |  |  |  |  |  |  |  |  |  | 
